Measured values reported in patent US5834484A (Board of Supervisors of Louisiana State University and …, priority 1998, dated 1998).
Read-outs that look alike come from different tables or passages of the source.

Legend:
DAT = conditions: in words; cited from earlier work
[1] = target: T1, dopamine transporter (DAT), cocaine binding site (Rattus norvegicus, UniProt P23977); assay: Displacement of [^3 H]WIN 35,428 binding (rat striatal / caudate-putamen membranes); conditions: for binding affinity compared with cocaine and WIN 35,065-2: high affinity Ki values/components of cocaine and WIN 35,065-2; for Ki: mean ± SEM, three experiments in triplicate, unlabeled ligand, rat caudate-putamen
T1 construct: Rat striatal membranes are prepared from frozen tissue; from tissue; host or cells: rat caudate-putamen (striatal) membranes from frozen tissue
T1 sequence (P23977 whole entry): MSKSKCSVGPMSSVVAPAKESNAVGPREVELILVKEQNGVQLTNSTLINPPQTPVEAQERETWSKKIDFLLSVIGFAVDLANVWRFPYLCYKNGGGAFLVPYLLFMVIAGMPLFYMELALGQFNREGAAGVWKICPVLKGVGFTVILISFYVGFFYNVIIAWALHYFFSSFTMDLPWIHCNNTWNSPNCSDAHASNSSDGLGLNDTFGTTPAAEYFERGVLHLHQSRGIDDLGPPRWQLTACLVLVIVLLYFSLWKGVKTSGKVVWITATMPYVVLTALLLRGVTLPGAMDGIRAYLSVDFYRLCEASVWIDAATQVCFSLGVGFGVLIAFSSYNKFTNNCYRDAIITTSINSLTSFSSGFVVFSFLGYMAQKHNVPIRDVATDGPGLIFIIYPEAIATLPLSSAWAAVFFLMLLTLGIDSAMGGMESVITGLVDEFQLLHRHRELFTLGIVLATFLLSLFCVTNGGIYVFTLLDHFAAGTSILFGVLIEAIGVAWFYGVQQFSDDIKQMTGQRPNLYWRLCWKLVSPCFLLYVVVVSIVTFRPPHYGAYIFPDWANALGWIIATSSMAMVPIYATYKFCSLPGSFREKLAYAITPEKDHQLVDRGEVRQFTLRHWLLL

[2] = target: T1, dopamine transporter (DAT), cocaine binding site; conditions: two-site model, taken from Izenwasser et al. 1994, substantially identical conditions, cited from earlier work

COC(=O)[C@@H]1[C@@H](OC(=O)c2ccccc2)C[C@@H]2[C@@H](OC)C[C@H]1N2C (relative stereo) [Compound 3, 6β-methoxypseudococaine]
binding affinity to DAT (literature) (DAT): relatively low

COC(=O)[C@H]1[C@H]2[C@H](OC)C[C@@H](C[C@@H]1OC(=O)c1ccccc1)N2C (relative stereo) [Compound 4, 7β-methoxypseudococaine]
binding affinity to DAT (literature) (DAT): relatively low

COC(=O)C[C@H]1[C@@H](Cc2ccccc2)C[C@@H]2CC[C@H]1N2C (relative stereo) [Compound 16a]
binding affinity compared with cocaine and WIN 35,065-2 ([1]; in words): not statistically different from the binding affinities of cocaine and WIN 35,065-2
Ki [1]: 91 ± 10 nM

COC(=O)C[C@@H]1[C@@H](Cc2ccccc2)C[C@@H]2CC[C@H]1N2C (relative stereo) [Compound 17a]
potency relative to the binding affinities of cocaine, WIN 35,065-2 and 16a (unsubstituted 2α-isomer) ([1]; in words): significantly less potent
Ki [1]: 108 ± 14 nM
potency (binding affinity) relative to Compound 3, in words ([1]; vs prior art cocaine analog 3): nearly three orders of magnitude more potent

COC(=O)C[C@@H]1[C@@H](Cc2ccccc2)C[C@@H]2[C@H](C)C[C@H]1N2C (relative stereo) [Compound 17b]
Ki [1]: 531 ± 12 nM

CC[C@@H]1C[C@@H]2[C@H](CC(=O)OC)[C@@H](Cc3ccccc3)C[C@H]1N2C (relative stereo) [Compound 17c]
potency (binding affinity) relative to Compound 3, fold ([1]; vs prior art cocaine analog 3): about 100 times

COC(=O)C[C@H]1[C@@H](Cc2ccccc2)C[C@@H]2[C@@H](C)C[C@H]1N2C (relative stereo) [Compound 18b]
potency relative to corresponding 6α-methyl analog 16b ([1]; 18b vs 16b): about fourfold more potent
binding affinity relative to unsubstituted analog 16a ([1]; in words): only a slightly lower binding affinity than that of the unsubstituted analog 16a
binding affinity compared with cocaine and WIN 35,065-2 ([1]; in words): within a factor of two of the high affinity binding components of cocaine and WIN 35,065-2

COC(=O)C[C@@H]1[C@@H](Cc2ccccc2)C[C@@H]2[C@@H](C)C[C@H]1N2C (relative stereo) [Compound 19b]
potency relative to corresponding 6α-isomer 17b ([1]; 19b vs 17b): about twice as potent
binding affinity relative to unsubstituted derivative 17a ([1]; in words): comparable to that of the unsubstituted derivative 17a
potency (binding affinity) relative to Compound 3, in words ([1]; vs prior art cocaine analog 3): nearly three orders of magnitude more potent

CCC[C@H]1C[C@@H]2[C@H](CC(=O)OC)[C@@H](Cc3ccccc3)C[C@H]1N2C (relative stereo) [Compound 19d]
potency (binding affinity) relative to Compound 3, in words ([1]; vs prior art cocaine analog 3): nearly three orders of magnitude more potent

COC(=O)[C@H]1[C@@H](c2ccccc2)C[C@@H]2CC[C@H]1N2C [WIN 35,065-2]
Ki ([2]; read-out: Ki, high affinity, inhibition of [^3 H]WIN 35,428 binding, high affinity): 33 ± 17 nM
Ki ([2]; read-out: Ki, low affinity, inhibition of [^3 H]WIN 35,428 binding, low affinity): 314 ± 222 nM
